Consider 65 compounds from a melting point compilation (Tetko et al.; mined from patent text by program, amines drawn as free bases though some values may be those of a salt).

SMILES strings stand for the structures.

In general, melting point refers to the temperature, or range, at which the solid turns liquid. For the compound `Cc1oc(-c2cccs2)nc1CC#N`, the melting point amounted to 185 °C.

For the compound `Cc1c(-c2ccncc2)[nH]c(-c2ccncc2)c1C(=O)OCc1ccccc1`, the melting point fell in the range of 204 to 205 °C.

For `CC(=O)c1noc2cc(O)ccc12`, the melting point was 159 to 161 °C.

`Cc1ccc(C(=S)NN)cc1` gave a melting point of 140 to 142 °C.

Take `C=C1C(NC(=O)C(F)(F)F)CC(OC)OC1C` (stereo not given): the melting point was in the range of 160 to 162 °C.

In turn, `O=C(O)CCCCC(=O)c1ccc2cc(O)ccc2c1` came in with a melting point of 191 to 193 °C.

For `O=C(O)[C@@H]1CCN2C(=O)CC[C@H](N3C(=O)c4ccccc4C3=O)C(=O)N12`, the melting point lay within 232 to 233 °C.

Consider `CC(=O)C(Oc1cc(Cl)cc(C#N)c1)C(C)=O`, for which the melting point lay in the range of 105 to 108 °C.

`CSc1snc(C(F)(F)F)c1C(=O)O`: the melting point lay within 260 to 262 °C.

Turning to `CC(=O)Nc1ccc(-c2cc(=O)c(C(=O)O)cn2-c2ccc(F)cc2)cc1`, the melting point fell in the range of 249 to 250 °C.

`Cc1ccc(-n2nc(C(C)(C)C)cc2NC(=O)Nc2ccc(N(C)c3ccncc3)c3ccccc23)cc1` came in with a melting point of 174 to 177 °C.

Take `Cn1cc(C2=C(c3c4n(c5ccccc35)CCC3(CCCC3NC(=O)OC(C)(C)C)C4)C(=O)OC2=O)c2ccccc21` (stereo not given): the melting point was in the range of 123 to 125 °C.

In the case of `COC(=O)C(=O)c1ccc(OCCOc2ccc(Cl)cc2)cc1`, the melting point lay within 103 to 105 °C.

Compound `CCC(=O)NCC=C1CCc2ccc3nn(C)cc3c21` had a melting point of 185 to 187 °C.

In turn, `COC(=O)C(=NO)c1ccccc1` gave a melting point of 151 to 153 °C.

With `Cc1nc2c(N)nc3ccccc3c2n1CCCCCNC(=O)c1ccccc1`, the melting point fell in the range of 110 to 120 °C.

The compound `CCOP(=O)(Cc1cc(=O)[nH]c2cc(Cl)c(Cl)cc12)OCC` registered a melting point of 219 to 222 °C.

Take `CC(C)(CNS(=O)(=O)C(F)(F)F)Cn1c(=O)c2cccc3ncc(c1=O)n32`: the melting point lay in the range of 196 to 198 °C.

`CCOC(=O)C=CC(=CN)C(=O)OCC` had a melting point of 109 °C.

`CCOC(=O)NN=C(CC)c1ccncc1` registered a melting point of 147 °C.

As to `CCOC1=CC2=CC[C@@H]3[C@H](CC[C@]4(CC)C(=O)C=C[C@@H]34)[C@H]2CC1`, the melting point came to 137 °C.

For the compound `CCOC(=O)C1=C(C)NC(N=CN(C)C)=C(C(=O)OCC)C1c1cccc([N+](=O)[O-])c1` (stereo not given), the melting point is 150 °C.

`CSc1ccc(-c2oc3ccccc3c(=O)c2-c2ccc(C(F)(F)F)cc2)cc1` registered a melting point of 189 to 192 °C.

The compound `Nc1nc2ccc(OCC(F)(F)C(F)(F)F)cc2s1` showed a melting point of 147 °C.

`COC(=O)c1cc(-c2ccncc2)ccc1C(=O)N1CCN(C(=O)OC(C)(C)C)CC1` came in with a melting point of 144 to 146 °C.

Consider `CCOC(=O)C1=Cc2cc(Cl)cc(CO)c2OC1C(F)(F)F` (stereo not given), for which the melting point was in the range of 98 to 100 °C.

With `COc1ccc(C2(C)Cc3cc(OCC(=O)O)c(Cl)c(Cl)c3C2=O)cc1` (stereo not given), the melting point was in the range of 173 to 175 °C.

With `COc1ccc(Oc2ccc(C(=O)CC(SC(C)=O)C(=O)O)cc2)cc1` (stereo not given), the melting point was in the range of 110 to 111 °C.

`CC1(C)CC(C)(c2ccc(Oc3ccc(N)cc3)cc2)c2cc(Oc3ccc(N)cc3)ccc21` (stereo not given) yielded a melting point of 135 to 136 °C.

In turn, `OCc1ccc2cc(OCc3ccccc3)ccc2c1` returned a melting point of 130 to 132 °C.

`O=C(O)CCc1oc(/C=C/c2ccccc2)nc1-c1ccccc1` yielded a melting point of 138 to 139 °C.

For the compound `O=C1CSc2cc(C(O)(C(F)(F)F)C(F)(F)F)ccc2N1`, the melting point lay within 230 to 232 °C.

In turn, `CCCCCc1ccc(OC(=O)Oc2ccc([N+](=O)[O-])cc2)cc1` returned a melting point of 67 to 69 °C.

As for `Cc1ccc(S(=O)(=O)N2CC2)cc1`, the melting point fell in the range of 51 to 52 °C.

Turning to `COCCOCOCc1c(OC)ccc2c1Oc1c(ccc(OC)c1CO)N2C`, the melting point lay in the range of 68 to 70 °C.

Regarding `CC(C)=CCNC(=O)N1CC(Oc2cccc(C(F)(F)F)c2)C1`, the melting point lay in the range of 143 to 144 °C.

Turning to `O=C(O)c1ccc(-c2ccc(-c3ccc(Cl)cc3)s2)cc1`, the melting point fell in the range of 285 to 286 °C.

`NS(=O)(=O)c1cccc(NC(=O)c2cnn3ccc(-c4ccc(Cl)cc4)nc23)c1` registered a melting point of 345 °C.

As for `Cc1csc(-c2cc(=O)n(C)c3ccc(C(=O)c4ccc(Cl)cc4)cc23)n1`, the melting point worked out at 236 °C.

`CCOC(=O)C1Oc2cccnc2NC1=O` (stereo not given) came in with a melting point of 160 to 162 °C.

As to `CC(C(=O)O)c1ccc2c(c1)C(=O)Cc1c(Cl)cccc1S2` (stereo not given), the melting point fell in the range of 163 to 164 °C.

In the case of `O=C1Nc2cccnc2N(CCCCN2CCCCC2)c2ccccc21`, the melting point fell in the range of 131 to 132 °C.

`COC(CCN(C(=O)OC(C)(C)C)c1cc(OCc2ccccc2)c2ncccc2c1I)OC`: the melting point fell in the range of 120 to 121 °C.

For `COCCOc1ccc(N=Nc2c(C#N)[nH]n(-c3ccccc3)c2=O)cc1S(=O)(=O)O`, the melting point was in the range of 263 to 265 °C.

The compound `ON=Cc1cc(-c2ccc(O)cc2)c2occc2c1` registered a melting point of 192 to 194 °C.

Consider `CC(C)(C)C(O)(CC#CBr)C(Oc1ccc(Cl)cc1)n1cncn1` (stereo not given), for which the melting point lay within 156 to 160 °C.

As for `COC(=O)C1c2c(C)c(OC(=O)c3ccc([N+](=O)[O-])cc3)c(C)c(C)c2OC1(C)C` (stereo not given), the melting point was in the range of 215 to 216 °C.

On to `Cn1nc(-c2nc(C#CCO)c(Cl)cc2F)c(Cl)c1OC(F)F`, for which the melting point was in the range of 92 to 94 °C.

Take `Nc1ncc(C2OC(CO)C(O)C2O)c(=O)[nH]1` (stereo not given): the melting point lay in the range of 216 to 217 °C.

In turn, `O=c1cc(O)nc2cc(C(c3c(F)ccc(F)c3F)S(=O)(=O)CCC(F)(F)F)c(Cl)cn12` (stereo not given) displayed a melting point of 264 °C.

The compound `Cn1c(=O)c(C#N)c(N2CCNCC2)c2cc(F)ccc21` yielded a melting point of 211 °C.

Turning to `CC12CCC(O)CC1=CCC1C2C(O)CC2(C)C1CCC21OCCO1` (stereo not given), the melting point lay in the range of 123 to 125 °C.

Compound `CCCCC(CC)COC(=O)C(C#N)=Cc1ccc(C(=O)O)cc1` (stereo not given) yielded a melting point of 159 to 162 °C.

As for `COC1(c2nc3ccc(C)cc3s2)C=CC(=NS(=O)(=O)c2ccc(C)cc2)C=C1` (stereo not given), the melting point was in the range of 166 to 168 °C.

The compound `CC(=O)NCc1c(C)cc(CCl)cc1C` returned a melting point of 193 to 194 °C.

In turn, `COC(=O)c1cc(C)c(NC(=O)c2cc(C(F)(F)F)nn2-c2ncccc2Cl)c(C(=O)NC(C)C)c1` showed a melting point of 199 to 200 °C.

`Cc1ccc(C(=O)Nc2c(NC(=O)CN3CCC4(CC3)OCCO4)ccc3c2C(=O)c2ccccc2C3=O)cc1` yielded a melting point of 197 to 198 °C.

`Cc1ccc2c(c1C)C(=O)CC2` had a melting point of 43 to 44 °C.

In the case of `COC(=O)c1cc(NC(C)=O)cc(NC(C)=O)c1`, the melting point lay in the range of 220 to 221 °C.

For the compound `CSC(=S)NN=Cc1nc(C)[nH]c1C`, the melting point was in the range of 279 to 281 °C.

Compound `Fc1cc(CBr)ccc1-c1nc2ccccc2o1` returned a melting point of 170 to 173 °C.

For `COc1ccc(-c2cc(Cl)cc3c2NC(CN)CO3)c(C)c1` (stereo not given), the melting point came to 98 °C.

`O=C(CCCCCl)NC1c2ccccc2CSc2ccccc21` (stereo not given): the melting point was in the range of 155 to 156 °C.

As to `COC(=O)C(Cc1cc(Br)c(O)c(Br)c1)NC(=O)C(F)(F)F` (stereo not given), the melting point was in the range of 136 to 137 °C.

Turning to `COc1cc(N)c(Cl)cc1C(=O)NC1CCN(CC2CCN(C(=O)Nc3ccccc3)CC2)CC1`, the melting point fell in the range of 212 to 214 °C.
